For the assay, the target named is T1, human KDELR1 E117A (Homo sapiens, UniProt P24390, E117A).
T1 construct: expressed in transfected cells; host or cells: COS-7
Put plainly: ER retrieval assay, KDELR1 E117A-GFP. Particulars: COS-7 cells. The assay is classed as cell-based. The source says:
To create KDELR1-GFP and KDELR2-GFP, the reading frames for Homo sapiens KDELR1 (Uniprot: P24390) and KDELR2 (Uniprot: P33947) were cloned into the pEF5/FRT low level mammalian expression vector with a C-terminal 20 amino acid linker made up of 5 copies of Gly-Ser-Ser-Ser followed by GFP. Specific point mutations were introduced using the Quickchange protocol (Stratagene) and are described in the key resources table and figures. To create the mScarlet-KDEL^sec ligand construct, mScarlet with an N-terminal hGH signal peptide and the 16 C-terminal residues of human BiP at its C-terminus, containing the KDEL signal, was cloned into the pcDNA3.1 vector. […] The Golgi marker protein TGN46 was detected by antibody (sheep anti-TGN46 AHP500G; AbD Serotec) and an Alexa 647 conjugated secondary anti-sheep secondary (A-21448, Invitrogen). In Figure 1d and e, endogenous KDELR was detected by antibody (mouse anti-KDELR ADI-VAA-PT048; Enzo Life Sciences) and Alexa 488 conjugated anti-mouse secondary antibody (A-21202, Invitrogen). For retrieval assays in other figures, KDELR-GFP fusion proteins were directly detected by fluorescence. The mScarlet-xDEL fusion proteins were directly detected by fluorescence. […] The fraction of KDEL receptor in the Golgi apparatus was calculated by dividing the Golgi signal by the total cell signal. […]

T1 sequence (P24390 whole entry E117A): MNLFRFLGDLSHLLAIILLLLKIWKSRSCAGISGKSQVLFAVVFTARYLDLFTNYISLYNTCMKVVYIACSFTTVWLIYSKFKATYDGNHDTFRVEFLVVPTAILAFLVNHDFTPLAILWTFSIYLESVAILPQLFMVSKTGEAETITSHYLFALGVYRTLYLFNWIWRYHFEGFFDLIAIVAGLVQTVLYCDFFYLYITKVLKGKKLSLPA

As to “ADEL [pcDNA3.1 hGHss-mScarlet-H. sapiens BiP639-654K651A (ADEL^SEC), secreted mScarlet fusion with human BiP C-terminus, ADEL signal]”, the “ligand-induced receptor retrieval to the ER (in words)” value is recorded as “relocated to the ER”.

(Values after publication PMC8248988, “A signal capture and proofreading mechanism for the KDEL-receptor explains selectivity and dynamic range in ER retrieval” (eLife, 2021).)
